Values joined by “and” are separate entries in the source; they are usually repeats but may differ in a detail not shown here. Identical values can stand only once. Like-named read-outs stand apart in the source and are kept apart here.

This is an account of results in US20060204502A1 (priority 2004, published 2006).

Series [1] has as its system A375 cells. As to the kind of experiment: Colony formation assay of A375 cells. Format: cell-based, human. The conditions noted are these: 10 μM combined with paclitaxel (0.75 μg/ml), 7 days. The procedure:
FIG. 2 illustrates colony formation assay of A375 cells. Cells were treated with different drugs and colonies were counted after 7 days. The values represent the mean±SEM of four independent experiments. […] Analysis was by ANOVA followed by Dunnett's test.
Control plates received the same volume of DMSO alone. After 7 days of growth at 37° C. in humidified atmosphere containing 5% CO2, the cells were fixed with absolute methanol for 5′ and stained with 1/10 Giemsa/phosphate-buffered saline (PBS) staining solution for 10 minutes. Staining solution was removed and colonies of greater than 30 cells were scored as survivors. For each treatment, six individual wells were scored.

For series [2], the system named is Human Pancreatic Cancer Panc-1. Briefly: MTT growth inhibitory assay, Panc-1. The class given is cell-based. The following applies: Panc-1 cells, A3 antagonist at 1 μg/ml. On the procedure: (§1) Interpretation of the EF is dependent upon the concentrations of A3 receptor antagonist tested. For example, when using very low concentrations of A3 receptor antagonist, any EF above 1.0 is synergistic if the A3 receptor antagonist concentration is below the threshold of cell growth inhibition.
(§2) The cells are sub-cultured twice a week.
(§3) Vinblastine sulfate salt was obtained from Sigma Chemical Co., (V1377). Irinotecan was diluted with culture medium. All other agents were dissolved in 100% DMSO at appropriate concentrations. The DMSO stock solutions were diluted 100-fold with growth medium so that the final DMSO concentration was 1%.
Background: Tetrazolium dyes change colour on reduction, which living cells bring about.

Series [3] relates to Human Melanoma A375. Briefly: MTT growth inhibitory assay, A375. The following applies: A375 cells.
Protocol: An exemplary assay may comprise the following steps: Cells (1000-1500 cells/well) are seeded in a 96-well micro culture plate in a total volume of 100 μl/well. After overnight incubation in a humidified incubator at 37° C. with 5% CO2-95% air, chemotherapeutic drug solutions diluted with culture medium at various concentrations are added in the amount of 100 μl to each well. The plates are placed in a humidified incubator at 37° C. with 5% CO2-95% air for 7-10 days. The plates are then centrifuged briefly and 100 μl of the growth medium is removed. Cell cultures are incubated with 50 μl of MTT [3-(4,5-dimethylthiazol-2-yl)-2,5-diphenyl-tetrazolium bromide] reagent (1 mg/ml in Dulbecco's phosphate-buffered saline) for 4 hr at 37° C. The resultant purple formazan precipitate is solubilized with 200 μl of 0.04 N HCl in isopropanol. Absorbance is measured at a wavelength of 595 nm and at a reference wavelength of 655 nm using a Bio-Rad Model 3550 Microplate Reader. Preferably, all tests are run in duplicate for each dose level. […] The EZED50 computer program estimates the concentration of agent that inhibits cell growth by 50% as compared to the control cells. This is termed the IC50 and is determined by curve fitting test data using the following four logistic equation. [formula]
If testing concentrations are properly selected (i.e., no or little growth inhibition at low concentrations and complete inhibition at high concentrations), EZED50 program fits the data extremely well and estimates the IC50 value accurately. […] In these instances, the data could be re-analyzed by fixing the Amax value.
In this case, the IC50 could be estimated more accurately if both the Amax and Amin values are fixed. Although it may be feasible to estimate IC50 value by fixing Amax and/or Amax and Amin without repeating the experiment, the best way to determine the IC50 accurately is to decrease or increase the concentrations of the test agent and repeat the test.
Inhibitory assay testing is also used to determine enhanced therapeutic effects from combining A3 receptor antagonists with other tumor inhibiting agents. The inhibitory cell growth assays are run with and without selected concentrations of A3 receptor antagonists. An enhanced therapeutic effect is present when the IC50 of the tumor inhibiting agent is lower with the A3 receptor antagonist.
Quantitatively, the enhancement factor (EF) is calculated by dividing the IC50 value of the tumor inhibiting agent for a tumor cell line by the IC50 value of the agent with A3 receptor antagonist for the same cell line: [formula]
The cells are cultured in a T25 Falcon Tissue Culture flask in a humidified incubator at 37° C. with 5% CO2-95% air. The cells are sub-cultured twice a week.
The test system of series [4] is Human Colon Carcinoma HT29. Briefly: MTT growth inhibitory assay, HT29. The class given is cell-based. The following applies: HT29 cells, A3 antagonist at 1 μg/ml. The procedure:
as §1, §2, §3

Series [5] concerns the target P-gp (Homo sapiens, UniProt P08183). Format: cell-based. The following applies: 10 μM; for P-gp mediated Rh123 efflux (FRES vs FMAX): 3 hours efflux. The procedure: Rhodamine 123 Efflux Assay: 5×10^5 cells from each subline were loaded with 50 ng/ml of rhodamine 123 for 30 minutes at 37 C in medium. The cells were washed and resuspended in dye-staining agent free medium for 3 hours at 37 C. to allow rhodamine 123 efflux. The cells were then washed twice and the fluorescence of intracellular rhodamine 123 were analysed with Flow cytometer (residual fluorescence FRES). The fluorescence was compared with loaded cells maintained at 4 C. to prevent drug export (maximal fluorescence FMAX). […] Cells from each subline that were not being exposed to rhodamine 123 were used as negative controls.
Rhodamine 123 (Rh123) retention, a P-gp functional assay, was studied in all cell lines. This assay was performed by incubating cells with Rh123 and determining Rh123 accumulation by measuring its fluorescence. The maximum load of Rh123 (FMAX) was quantified at the end of treatment harvesting the cells and storing them at 4° C. to prevent any active Rh123 efflux. The P-gp drug efflux was allowed incubating Rh123-loaded cells in fresh new medium Rh123-free for 3 hours at 37° C. After this incubation, residual fluorescence (FRES) was measured and compared to FMAX.

Series [6] has as its system HIF-1α. As to the kind of experiment: HIF-1α protein immunoblot in hypoxic cells. The class given is cell-based, human. The following applies: A375. On the procedure: Cell culture and hypoxia treatment: Cells were maintained in DMEM (A375), EMEM (NCTC 2544) or RPMI 1640 (U87MG, U2OS) medium containing 10% fetal calf serum, penicillin (100 U/ml), streptomycin (100 ug/ml), and L-glutamine (2 mM) at 37° C. in 5% CO2/95% air. Cells were passaged two or three times weekly at a ratio between 1:5 and 1:10. Hypoxic exposure was in BBL™ GasPak pouch™ System (Becton Dickinson) that reduce oxygen concentration of less than 2% within 2 hours of incubation at 35° C.
Cells were harvested and washed with ice-cold PBS containing 1 mM sodium orthovanadate, AEBSF 104 mM, aprotinin 0.08 mM, leupeptin 2 mM, bestatin 4 mM, pepstatin A 1.5 mM, E-64 1.4 mM. Cells were then lysed in Triton lysis buffer. The protein concentration was determined using BCA protein assay kit (Pierce). […] The gel was then electroblotted onto a nitrocellulose membrane. Membranes were blocked with 5% nonfat dry milk in PBS containing 0.1% Tween-20 and incubated with antibodies against HIF-1α (1:250 dilution) and HIF-1β (1:1000 dilution) in 5% nonfat dry milk in PBS/0.1% Tween-20 overnight at 4° C. Aliquots of total protein sample (50 ug) were analyzed using antibodies specific for phosphorylated (Thr183/Tyr185) or total p44/p42 MAPK (1:5000 dilution), phosphorylated (Thr180/Tyr182) or total p38 MAPK (1:1000 dilution) and for A3 receptor (1 µg/ml dilution). Filters were washed and incubated for 1 hour at room temperature with peroxidase-conjugated secondary antibodies against mouse and rabbit IgG (1:2000 dilution). […] The membranes were then stripped and reprobed with tubulin (1:250) to ensure equal protein loading.
U0126 was used at 10 and 30 uM as inhibitor of MEK-1 and MEK-2 to prevent p44 and p42 MAPK activation. SB202190 was used at 1 and 10 uM as inhibitor of p38 MAPK.
Densitometry analysis: The intensity of each band in immunoblot assay was quantified using molecular analyst/PC densitometry software (Bio-Rad). […] The data were presented as the mean±S.E., and analyzed by the Student's test.
On the technique in general: A western blot detects proteins with antibodies after separation by electrophoresis.

Series [7] relates to Human Lung Carcinoma SKMES. As to the kind of experiment: MTT growth inhibitory assay, SKMES. The class given is cell-based. The following applies: SKMES cells, A3 antagonist at 1 μg/ml. The procedure: as §1, §2, §3

Chain of P-gp (P08183 whole entry): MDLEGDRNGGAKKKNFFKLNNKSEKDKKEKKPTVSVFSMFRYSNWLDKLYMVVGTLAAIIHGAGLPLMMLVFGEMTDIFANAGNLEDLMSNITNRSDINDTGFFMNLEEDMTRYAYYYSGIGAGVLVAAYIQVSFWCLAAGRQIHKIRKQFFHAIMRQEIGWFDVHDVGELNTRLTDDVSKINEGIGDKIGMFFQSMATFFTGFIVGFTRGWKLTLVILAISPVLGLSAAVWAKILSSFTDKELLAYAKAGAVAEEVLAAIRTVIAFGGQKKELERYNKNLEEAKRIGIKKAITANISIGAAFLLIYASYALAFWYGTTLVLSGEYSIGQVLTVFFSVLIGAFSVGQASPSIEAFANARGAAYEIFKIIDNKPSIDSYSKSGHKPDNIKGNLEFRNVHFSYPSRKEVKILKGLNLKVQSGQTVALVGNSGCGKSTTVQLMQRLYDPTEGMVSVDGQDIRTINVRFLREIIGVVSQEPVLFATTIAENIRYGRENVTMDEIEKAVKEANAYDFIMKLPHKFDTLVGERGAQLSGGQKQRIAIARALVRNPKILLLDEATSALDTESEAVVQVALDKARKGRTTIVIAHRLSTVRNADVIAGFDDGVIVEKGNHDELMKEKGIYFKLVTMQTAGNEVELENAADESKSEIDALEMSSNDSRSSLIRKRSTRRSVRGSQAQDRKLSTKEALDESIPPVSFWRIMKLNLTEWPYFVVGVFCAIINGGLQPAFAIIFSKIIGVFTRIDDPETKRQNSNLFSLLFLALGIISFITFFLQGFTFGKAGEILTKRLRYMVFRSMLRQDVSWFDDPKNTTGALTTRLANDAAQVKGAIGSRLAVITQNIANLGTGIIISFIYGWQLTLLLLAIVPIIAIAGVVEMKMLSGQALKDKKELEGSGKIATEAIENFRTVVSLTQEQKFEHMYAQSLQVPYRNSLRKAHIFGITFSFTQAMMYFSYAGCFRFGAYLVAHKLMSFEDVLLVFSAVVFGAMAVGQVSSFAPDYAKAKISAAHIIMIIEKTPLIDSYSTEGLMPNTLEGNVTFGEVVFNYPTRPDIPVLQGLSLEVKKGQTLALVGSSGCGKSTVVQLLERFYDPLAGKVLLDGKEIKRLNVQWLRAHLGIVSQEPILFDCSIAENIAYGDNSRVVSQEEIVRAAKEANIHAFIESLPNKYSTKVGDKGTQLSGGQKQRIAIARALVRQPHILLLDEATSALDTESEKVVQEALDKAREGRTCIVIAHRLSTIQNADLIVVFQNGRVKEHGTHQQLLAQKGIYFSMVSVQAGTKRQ

As to `CCCn1cc2c(nc(NC(=O)Nc3ccc(OC)cc3)n3nc(-c4ccco4)nc23)n1` [MRE3008F20, 5-[[(4-Methoxyphenyl)amino]carbonyl]amino-8-propyl-2-(2-furyl)-pyrazolo[4,3-e]1,2,4-triazolo[1,5-c]pyrimidine], the “colony formation, % of DMSO control” value in series [1] was 0.2%. Moreover, the “Enhancement Factor” value in series [2] (enhancement of docetaxel IC50) was found to be 1.8; in series [2] (enhancement of paclitaxel IC50), 1.9; in series [3] (enhancement of docetaxel IC50, A3 antagonist at 3 μg/ml), 6.9; in series [3] (enhancement of docetaxel IC50, A3 antagonist at 10 μg/ml), 5.3; in series [3] (enhancement of paclitaxel IC50, A3 antagonist at 1 μg/ml), 7.1; in series [3] (enhancement of paclitaxel IC50, A3 antagonist at 3 μg/ml) it was 6.4. Besides, the “Enhancement Factor” value in series [3] (enhancement of paclitaxel IC50, A3 antagonist at 10 μg/ml) was 7.1 and 8.5; in series [3] (enhancement of paclitaxel, at all three concentrations (1, 3, and 10 μg/ml)), 6.4-7.1; in series [4] (enhancement of docetaxel IC50) it was 15.0; in series [4] (enhancement of doxorubicin IC50), 1.6; in series [4] (enhancement of irinotecan IC50), 1.8; in series [4] (enhancement of paclitaxel IC50), 2.9. Moreover, the “Enhancement Factor” value was found to be 3.6 in series [7] (enhancement of docetaxel IC50), 2.1 in series [7] (enhancement of irinotecan HCL IC50), 4.1 in series [7] (enhancement of paclitaxel IC50) and 1.2 in series [7] (enhancement of vinblastine IC50). The figures for the “P-gp mediated Rh123 efflux (FRES vs FMAX)” value in series [5] (A375 cells) and in series [5] (HeL023 cells) were “completely blockade of P-gp mediated Rh123 transport” and “near total P-gp inhibition”, respectively. In addition, in series [5] (HeL023 cells), the “% of Rh123 Negative Cells (cells expressing P-gp activity)” value stood at 0.5 ± 0.3%. Besides, in series [6] (hypoxia 4 hours, adenosine 100 μM, antagonist 100 nM), the “effect on adenosine-induced HIF-1α protein expression” value is reported as “abrogated”. Moreover, the “effect on Cl-IB-MECA-induced HIF-1α modulation” value in series [6] (hypoxia, antagonist 10 and 100 nM, Cl-IB-MECA 10 and 100 nM) was “able to abrogate the effect of Cl-IB-MECA”. Moreover, the IC50 in series [6] (Homo sapiens, A-375, read-out: IC50, inhibition of HIF-1α protein increase induced by 10 nM Cl-IB-MECA, hypoxia 4 hours, 0.3-30 nM) came out at 0.9 ± 0.08 nM.

Broadly, the IC50 is the concentration that gives 50% inhibition.
